ChEMBL document CHEMBL1138006, “Identification of 2,3-diaryl-pyrazolo[1,5-b]pyridazines as potent and selective cyclooxygenase-2 inhibitors” (Bioorg Med Chem Lett, 2004)

Experiments:
[1] = target: T1, Prostaglandin G/H synthase 2 (Rattus norvegicus) (UniProt P35355); experiment: Percent reversal of FCA-induced arthritis in rats at 10 mg/kg; type: functional, organism-based; set-up: dose 10 mg/kg
T1 sequence (whole entry): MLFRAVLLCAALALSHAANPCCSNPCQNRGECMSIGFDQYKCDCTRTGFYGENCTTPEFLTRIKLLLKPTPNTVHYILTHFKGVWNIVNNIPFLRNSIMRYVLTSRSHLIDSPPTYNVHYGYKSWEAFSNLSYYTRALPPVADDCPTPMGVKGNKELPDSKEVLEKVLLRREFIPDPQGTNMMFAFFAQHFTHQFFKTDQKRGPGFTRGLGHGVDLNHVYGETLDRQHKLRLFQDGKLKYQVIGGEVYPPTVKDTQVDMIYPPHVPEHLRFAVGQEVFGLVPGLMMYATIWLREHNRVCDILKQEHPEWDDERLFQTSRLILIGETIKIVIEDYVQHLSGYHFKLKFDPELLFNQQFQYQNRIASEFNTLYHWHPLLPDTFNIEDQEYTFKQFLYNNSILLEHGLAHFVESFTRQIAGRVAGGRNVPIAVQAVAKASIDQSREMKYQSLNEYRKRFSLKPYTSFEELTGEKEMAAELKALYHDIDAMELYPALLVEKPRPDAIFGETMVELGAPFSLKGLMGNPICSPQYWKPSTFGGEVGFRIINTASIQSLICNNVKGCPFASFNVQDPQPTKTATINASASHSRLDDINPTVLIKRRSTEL

[2] = target: Prostaglandin G/H synthase 1 (Homo sapiens, UniProt P23219); type: cell-based, COS
Chain of Prostaglandin G/H synthase 1 (P23219 whole entry): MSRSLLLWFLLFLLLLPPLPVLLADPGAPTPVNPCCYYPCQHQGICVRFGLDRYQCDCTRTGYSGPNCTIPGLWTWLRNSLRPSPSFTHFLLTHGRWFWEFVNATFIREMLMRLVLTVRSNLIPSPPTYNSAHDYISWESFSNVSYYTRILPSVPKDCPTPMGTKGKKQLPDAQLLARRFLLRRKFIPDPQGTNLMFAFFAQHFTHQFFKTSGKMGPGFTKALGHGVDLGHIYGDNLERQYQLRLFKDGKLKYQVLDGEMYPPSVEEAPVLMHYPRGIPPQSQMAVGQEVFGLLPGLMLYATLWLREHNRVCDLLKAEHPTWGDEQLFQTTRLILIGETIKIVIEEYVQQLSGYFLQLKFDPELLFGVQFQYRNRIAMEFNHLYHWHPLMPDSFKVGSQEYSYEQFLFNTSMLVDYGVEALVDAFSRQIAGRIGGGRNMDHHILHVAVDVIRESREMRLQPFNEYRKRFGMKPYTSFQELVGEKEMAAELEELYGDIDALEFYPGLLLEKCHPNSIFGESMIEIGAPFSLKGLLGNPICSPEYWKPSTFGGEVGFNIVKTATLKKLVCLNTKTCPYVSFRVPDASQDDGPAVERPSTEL
Description: Inhibition of human cyclooxygenase-1 expressed in COS cells

[3] = target: T2, Prostaglandin G/H synthase 2 (Homo sapiens, UniProt P35354); type: cell-based, COS
T2 sequence (P35354 whole entry): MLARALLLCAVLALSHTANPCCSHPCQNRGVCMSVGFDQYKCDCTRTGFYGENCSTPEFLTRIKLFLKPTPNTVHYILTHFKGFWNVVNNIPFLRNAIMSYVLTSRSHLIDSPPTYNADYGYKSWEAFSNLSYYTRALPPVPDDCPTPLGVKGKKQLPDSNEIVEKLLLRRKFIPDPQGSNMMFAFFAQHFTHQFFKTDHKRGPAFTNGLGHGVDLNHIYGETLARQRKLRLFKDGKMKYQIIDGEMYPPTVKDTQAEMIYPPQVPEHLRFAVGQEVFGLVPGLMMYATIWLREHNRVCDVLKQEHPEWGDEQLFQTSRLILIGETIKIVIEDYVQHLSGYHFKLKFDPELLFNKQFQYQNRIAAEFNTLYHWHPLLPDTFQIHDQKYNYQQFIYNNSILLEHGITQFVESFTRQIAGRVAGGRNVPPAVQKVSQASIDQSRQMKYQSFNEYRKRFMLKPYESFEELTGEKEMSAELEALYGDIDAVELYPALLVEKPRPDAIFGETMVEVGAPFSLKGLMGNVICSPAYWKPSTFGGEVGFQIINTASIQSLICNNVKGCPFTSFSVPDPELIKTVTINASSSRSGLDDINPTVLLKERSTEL
Description: Inhibition of human cyclooxygenase-2 expressed in COS cells

[4] = Clearance after iv administration of 2 mg/kg to rat; type: ADME, organism-based; set-up: dose 2 mg/kg, route intravenous; details: in vivo
[5] = Distribution after iv administration of 2 mg/kg to rat; type: ADME, organism-based; set-up: dose 2 mg/kg, route intravenous; details: in vivo, read-out: Distribution
[6] = Oral bioavailability after oral administration of 5 mg/kg to rat; type: ADME, organism-based; details: in vivo, read-out: Bioavailabiility
[7] = Half life after iv administration of 2 mg/kg to rat; type: ADME, organism-based; set-up: dose 2 mg/kg, route intravenous; details: in vivo

SMILES	Reversal activity [1]	IC50 [2]	IC50 [3]	clearance [4]	Vd [5]	bioavailability [6]	half-life [7]
COc1ccc2c(-c3ccc(S(C)(=O)=O)cc3)c(-c3ccc(C)cc3)nn2n1	15%	> 100000 nM	50 nM				
CS(=O)(=O)c1ccc(-c2c(-c3ccc(F)cc3)nn3ncccc23)cc1		> 100000 nM	39 nM				
CCOc1ccc(-c2nn3nc(S(C)(=O)=O)ccc3c2-c2ccc(S(N)(=O)=O)cc2)cc1	0%	> 100000 nM	264 nM				
CC(C)Oc1ccc2c(-c3ccc(S(C)(=O)=O)cc3)c(-c3ccc(F)cc3)nn2n1		> 100000 nM	57 nM				
NS(=O)(=O)c1ccc(-c2c(-c3ccc(OC(F)(F)F)cc3)nn3ncccc23)cc1	92%	> 100000 nM	388 nM				
Cc1ccc2c(-c3ccc(S(C)(=O)=O)cc3)c(-c3ccc(F)cc3)nn2n1		> 100000 nM	24 nM				
COc1ccc2c(-c3ccc(S(C)(=O)=O)cc3)c(-c3ccc(F)cc3)nn2n1	10%	> 35100 nM	51 nM				
CCOc1ccc2c(-c3ccc(S(C)(=O)=O)cc3)c(-c3ccc(F)cc3)nn2n1	11%	> 100000 nM	43 nM				
CCc1ccc2c(-c3ccc(S(C)(=O)=O)cc3)c(-c3ccc(F)cc3)nn2n1	40%	> 100000 nM	48 nM				
CCOc1ccc(-c2nn3ncccc3c2-c2ccc(S(C)(=O)=O)cc2)cc1 [GW-406381]		> 84200 nM		9 mL/min/kg	3 L/kg	80%	4.1 h
CS(=O)(=O)c1ccc(-c2c(-c3ccccc3)nn3ncccc23)cc1		> 100000 nM	2 nM				
Cc1ccc(-c2ncc(Cl)cc2-c2ccc(S(C)(=O)=O)cc2)cn1 [ETORICOXIB]		> 100000 nM					

Next, values leading:

Reversal activity [1]	IC50 [2]	IC50 [3]	clearance [4]	Vd [5]	bioavailability [6]	half-life [7]	SMILES
0%	24100 nM	< 10 nM					NS(=O)(=O)c1ccc(-c2c(-c3ccc(F)cc3)nn3ncccc23)cc1
23%	> 19100 nM	17 nM					Cc1ccc(-c2nn3ncccc3c2-c2ccc(S(C)(=O)=O)cc2)cc1
	8630 nM	13 nM					CCOc1ccc(-c2nn3nc(SC)ccc3c2-c2ccc(S(N)(=O)=O)cc2)cc1
78%	58300 nM	34 nM					CS(=O)(=O)c1ccc(-c2c(-c3cccc(F)c3)nn3ncccc23)cc1
1%	43900 nM	< 31 nM					Cc1ccc2c(-c3ccc(S(C)(=O)=O)cc3)c(-c3ccccc3)nn2n1
	2610 nM	26 nM					COc1ccc2c(-c3ccc(S(N)(=O)=O)cc3)c(-c3ccc(F)cc3)nn2n1
